Each compound was assayed against T1, interaction of K-Ras with RGL2 (Homo sapiens, UniProt O15211) (assay: Ras/RalGEF binding, immunoprecipitation and immunoblot from co-transfected HEK-293 cells). Conditions: 10 μM, HA K-Ras 12v and GFP-RGL2, IP/IB, FIG. 3B.
T1 construct: expressed in transfected cells; host or cells: HEK-293
T1 sequence (O15211 1-777): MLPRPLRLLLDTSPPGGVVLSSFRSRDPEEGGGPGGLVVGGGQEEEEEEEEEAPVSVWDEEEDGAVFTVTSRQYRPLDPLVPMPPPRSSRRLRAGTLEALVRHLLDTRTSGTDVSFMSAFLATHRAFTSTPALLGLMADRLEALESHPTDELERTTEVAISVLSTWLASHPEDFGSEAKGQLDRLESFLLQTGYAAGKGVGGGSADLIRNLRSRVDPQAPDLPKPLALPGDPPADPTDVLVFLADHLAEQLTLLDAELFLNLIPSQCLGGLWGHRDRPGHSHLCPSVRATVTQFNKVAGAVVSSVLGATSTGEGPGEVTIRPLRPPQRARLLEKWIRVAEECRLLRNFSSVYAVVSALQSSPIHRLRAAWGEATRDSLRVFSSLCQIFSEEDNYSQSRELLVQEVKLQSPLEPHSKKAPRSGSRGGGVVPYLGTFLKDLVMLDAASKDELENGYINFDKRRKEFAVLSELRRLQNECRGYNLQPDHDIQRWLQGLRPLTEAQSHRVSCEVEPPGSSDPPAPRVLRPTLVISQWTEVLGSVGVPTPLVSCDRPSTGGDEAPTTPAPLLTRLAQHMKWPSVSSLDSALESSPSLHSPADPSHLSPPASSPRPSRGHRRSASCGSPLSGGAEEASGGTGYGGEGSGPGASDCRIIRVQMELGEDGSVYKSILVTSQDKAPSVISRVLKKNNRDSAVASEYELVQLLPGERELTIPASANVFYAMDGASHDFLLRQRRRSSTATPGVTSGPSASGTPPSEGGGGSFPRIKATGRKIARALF
For `COc1cccc(CNc2nc(CN(C)Cc3cccc(OC)c3)nc3ccccc23)c1` [Compound I-2, N-(3-Methoxybenzyl)-2-(((3-methoxybenzyl)(methyl)amino)methyl)quinazolin-4-amine], the “inhibition of RGL2 (Ras/RGL2 interaction)” value was “found to inhibit RGL2”.

What follows are compounds tested on MiaPaCa-2 (assay: Soft agar colony formation). Conditions: 10 μM; Table 2 experiment, DMSO control 182 ± 7 colonies.
Assay type: cell-based, human
Set-up: Colonies in agar: unit not given here
Protocol: FIG. 1. Effects of some compounds of Formula (I) on RalGEF inhibitor on soft agar growth and normal growth in 2D of pancreatic carcinoma cell lines. In FIGS. 1A and 1B, Panc-1 (ATCC® CRL-1469™) and MiaPaCa-2 (ATCC® CRL-1420™) mutant Ras containing pancreatic tumor cell lines were plated in soft agar in the presence of 10 μM or 0.9 μM of compound I-1 and scored for the formation of colonies. In FIGS. 1C and 1D, compound I-1 was then tested for the ability to inhibit cell growth on the same cell lines under normal 2D growth conditions on plastic. “0” is the carrier. Cells were seeded at the same density and scored after two weeks in culture.
Human pancreatic tumor cell lines MiaPaca-2 and Panc-1 contain activated K-Ras and were used in the initial screen to identify compound I-1. Soft agar colony formation remains an established in vitro assay to predict tumorigenicity and was used to predict tumorigenicity for compound I-1.
Several other compounds were tested against the Mia Paca-2 cell line using the soft agar colony formation in vitro assay in two experiments. For each table, DMSO was used as a control and, as such, within each table, the DMSO colonies are the measure against which each measurement in the corresponding table is compared.
`COc1cccc(CNc2nc(CN(C)Cc3cccc(C)c3)nc3sc(C)c(C)c23)c1` [Compound I-29] gave a Colonies in agar of 0 ± 0.
Compound `COc1cccc(CNc2nc(CN(C)Cc3cccc(OC)c3)nc3scc(C)c23)c1` [Compound I-30] has a Colonies in agar of 14 ± 2.
Compound `CCc1cc2c(NCc3cccc(OC)c3)nc(CN(C)Cc3cccc(OC)c3)nc2s1` [Compound I-31] has a Colonies in agar of 14 ± 1.
`COc1cccc(CNc2nc(CN(C)Cc3cccc(OC)c3)nc3c2c(C)c(C)[s+]3[O-])c1` (stereo not shown) [Compound I-33] showed a Colonies in agar of 186 ± 4.
`COc1cccc(CNc2nc(CN(C)Cc3cccc(OC)c3)nc3sccc23)c1` [Compound I-32] gave a Colonies in agar of 36 ± 1.
`COc1cccc(CN(C)Cc2nc(NCc3cccc(Cl)c3)c3c(C)c(C)sc3n2)c1` [Compound I-27] was tested, and the Colonies in agar was 51 ± 9.
Work on `COc1cccc(CN(C)Cc2nc(NCc3cccc(F)c3)c3c(C)c(C)sc3n2)c1` [Compound I-28] yielded a Colonies in agar of 54 ± 5.
Compound `COc1cccc(CN(C)Cc2nc(NC(C)c3ccccc3)c3c(C)c(C)sc3n2)c1` (stereo not shown) [Compound I-26] has a Colonies in agar of 0 ± 0.

Same assay, conditions: 10 μM; Table 3 experiment, DMSO control 1686 ± 114 colonies
`COc1cccc(CNc2nc(CN(C)Cc3cccc(OC)c3)nc3sc4c(c23)CCC4)c1` [Compound I-45] was tested, and the Colonies in agar was 361 ± 49.
Work on `COc1cccc(CN(C)Cc2nc(NCc3ccccc3)c3c(C)c(C)sc3n2)c1` [Compound I-46] yielded a Colonies in agar of 320 ± 22.
With `COc1cccc(CNc2nc(CN(C)Cc3ccccc3)nc3sc(C)c(C)c23)c1` [Compound I-54] the Colonies in agar was 410 ± 31.
`COc1cccc(CN(C)Cc2nc(NCc3ccccc3OC)c3c(C)c(C)sc3n2)c1` [Compound I-43] gave a Colonies in agar of 272 ± 40.

Reference: patent publication US11312690B2, “Compounds, compositions, methods for treating diseases, and methods for preparing compounds” (UNIVERSITY OF LOUISVILLE RESEARCH FOUNDATION, INC., priority 2015, dated 2022)
